Test results from PubChem BioAssay AID1963959 (Molecular Pharmacology Branch, DTP, NCI, 2024).

Test system: T-47D spheroids with HUVEC/MSC, viability
Assay: Anticancer human tumor T-47D cell line growth inhibition [PI3K];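 further: spheroids exposed to agents for seven days before reading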;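 on viability, T/C: percent of DMSO vehicle control luminescence so 100% = untreated growth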
Settings: for IC50: curve of first compound; for viability, T/C: stronger effect = lower value; active means viability on the fitted dose curve at most 10% of control; inactive means the rest
Method in brief: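 Three cell types, namely tumor cells, endothelial cells and mesenchymal stem cells, formed each spheroid. Combinations with four PI3K inhibitors were screened at clinically achievable concentrations decreasing by half-log, and spheroid viability was recorded.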

[1] = second compound 0.0316 µM, first compound 0.0316 µM
[2] = second compound 0.0316 µM, first compound 0.1 µM
[3] = second compound 0.0316 µM, first compound 0.316 µM
[4] = second compound 0.0316 µM, first compound 1 µM
[5] = second compound 0.0316 µM, first compound 3.16 µM
[6] = second compound 0.0316 µM, first compound 10 µM
[7] = second compound 0.1 µM, first compound 0.0316 µM
[8] = second compound 0.1 µM, first compound 0.1 µM
[9] = second compound 0.1 µM, first compound 0.316 µM
[10] = second compound 0.1 µM, first compound 1 µM
[11] = second compound 0.1 µM, first compound 3.16 µM
[12] = second compound 0.1 µM, first compound 10 µM
[13] = second compound 0.316 µM, first compound 0.0316 µM
[14] = second compound 0.316 µM, first compound 0.1 µM
[15] = second compound 0.316 µM, first compound 0.316 µM
[16] = second compound 0.316 µM, first compound 1 µM
[17] = second compound 0.316 µM, first compound 3.16 µM
[18] = second compound 0.316 µM, first compound 10 µM
[19] = second compound 1 µM, first compound 0.0316 µM
[20] = second compound 1 µM, first compound 0.1 µM
[21] = second compound 1 µM, first compound 0.316 µM
[22] = second compound 1 µM, first compound 1 µM
[23] = second compound 1 µM, first compound 3.16 µM
[24] = second compound 1 µM, first compound 10 µM

C=CC(=O)N1CCN(c2nc(=O)n(-c3c(C)ccnc3C(C)C)c3nc(-c4c(O)cccc4F)c(F)cc23)C(C)C1 (centres undefined) + Cc1nc(NC(=O)N2CCCC2C(N)=O)sc1-c1ccnc(C(C)(C)C(F)(F)F)c1
inactive: viability, T/C [1] 112% | viability, T/C [2] 92.4% | viability, T/C [3] 102% | viability, T/C [4] 84.8% | viability, T/C [5] 88.8% | viability, T/C [6] 98.5% | viability, T/C [7] 105% | viability, T/C [8] 89.7% | viability, T/C [9] 97.2% | viability, T/C [10] 77.8% | viability, T/C [11] 116% | viability, T/C [12] 106% | viability, T/C [13] 83.8% | viability, T/C [14] 96% | viability, T/C [15] 86.7% | viability, T/C [16] 99% | viability, T/C [17] 91.5% | viability, T/C [18] 99.4% | viability, T/C [19] 96.1% | viability, T/C [20] 98% | viability, T/C [21] 84.1% | viability, T/C [22] 100% | viability, T/C [23] 99.4% | viability, T/C [24] 101% | viability, T/C (second compound 3.16 µM, first compound 0.0316 µM) 65.1% | viability, T/C (second compound 3.16 µM, first compound 0.1 µM) 77.5% | viability, T/C (second compound 3.16 µM, first compound 0.316 µM) 77.9% | viability, T/C (second compound 3.16 µM, first compound 1 µM) 75.9% | viability, T/C (second compound 3.16 µM, first compound 3.16 µM) 85.4% | viability, T/C (second compound 3.16 µM, first compound 10 µM) 95.3% | viability, T/C (second compound 10 µM, first compound 0.0316 µM) 37% | viability, T/C (second compound 10 µM, first compound 0.1 µM) 36.7% | viability, T/C (second compound 10 µM, first compound 0.316 µM) 41.2% | viability, T/C (second compound 10 µM, first compound 1 µM) 45% | viability, T/C (second compound 10 µM, first compound 3.16 µM) 53% | viability, T/C (second compound 10 µM, first compound 10 µM) 59.5%
< 0.0316 µM: IC50 (second compound 10 µM)
> 10 µM: IC50 (second compound 0.0316 µM) | IC50 (second compound 0.1 µM) | IC50 (second compound 0.316 µM) | IC50 (second compound 1 µM) | IC50 (second compound 3.16 µM)

C[C@@H](NC(=O)c1ncnc(N)c1Cl)c1ncc(C(=O)Nc2cc(C(F)(F)F)c(Cl)cn2)s1 + COc1c(OCCCN2CCOCC2)ccc2c3n(c(=NC(=O)c4cnc(N)nc4)nc12)CCN3
< 0.0316 µM: IC50 (second compound 0.1 µM) | IC50 (second compound 0.316 µM) | IC50 (second compound 1 µM)
inactive: viability, T/C (second compound 0.00316 µM, first compound 0.0316 µM) 92.7% | viability, T/C (second compound 0.00316 µM, first compound 0.1 µM) 82.9% | viability, T/C (second compound 0.00316 µM, first compound 0.316 µM) 97.8% | viability, T/C (second compound 0.00316 µM, first compound 1 µM) 106% | viability, T/C (second compound 0.00316 µM, first compound 3.16 µM) 77.7% | viability, T/C (second compound 0.00316 µM, first compound 10 µM) 86.6% | viability, T/C (second compound 0.01 µM, first compound 0.0316 µM) 93.5% | viability, T/C (second compound 0.01 µM, first compound 0.1 µM) 90.5% | viability, T/C (second compound 0.01 µM, first compound 0.316 µM) 76.2% | viability, T/C (second compound 0.01 µM, first compound 1 µM) 78.5% | viability, T/C (second compound 0.01 µM, first compound 3.16 µM) 86.1% | viability, T/C (second compound 0.01 µM, first compound 10 µM) 85% | viability, T/C [1] 66.1% | viability, T/C [2] 71.2% | viability, T/C [3] 55.1% | viability, T/C [4] 61.7% | viability, T/C [5] 65.4% | viability, T/C [6] 68.9% | viability, T/C [7] 40.3% | viability, T/C [8] 32.9% | viability, T/C [9] 35.5% | viability, T/C [10] 38.4% | viability, T/C [11] 48% | viability, T/C [12] 38.3% | viability, T/C [13] 11.7% | viability, T/C [14] 12.6% | viability, T/C [15] 17.4% | viability, T/C [16] 16% | viability, T/C [17] 14.6% | viability, T/C [18] 20.3%
active: viability, T/C [19] 4.16% | viability, T/C [20] 8.23% | viability, T/C [21] 6.02% | viability, T/C [22] 4.08% | viability, T/C [23] 4.3% | viability, T/C [24] 7.55%
> 10 µM: IC50 (second compound 0.00316 µM) | IC50 (second compound 0.01 µM) | IC50 (second compound 0.0316 µM)
